How the values were obtained:
Type in all cases: in vivo, Drosophila melanogaster
[1] = test system: (Male) Sxlp^e tTa^(A) tRe lacZ^(I) × C(1)DX (Female); test: Reporter crosses at 25° C., embryos stained for lacZ
Excerpt: As with “single chromosome crosses”, ten to fifteen virgin females homozygous for the tTA construct and five to ten young males homozygous for the tRe construct were placed on food containing or lacking a tetracycline supplement.
C(1)DX is a compound X chromosome; effectively two X chromosomes joined together. The X chromosome from males crossed to C(1)DX females is therefore inherited by the sons, rather than the daughters.

[2] = test system: Sxlpe tTa^(A, B, C, F) × tRe Msl-1^Mpu(A, B); test: Single chromosome crosses at 25° C., adult progeny by sex
Protocol: (§1) In “single chromosome crosses” at 25° C., ten to fifteen virgin females homozygous for the tTA construct and five to ten young males homozygous for the tRe construct were placed on food containing or lacking a tetracycline supplement.

[3] = test system: Sxlpe tTa^(A, B, C, F) × tRe Ras64B^V12(B, C); test: as above
Protocol: as §1

[4] = test system: Sxlp^e tTa, tRe Msl-1^Mpu on the X chromosome; test: Recombinant chromosome experiments: parents raised on supplement, progeny on normal food, adults by sex (25, 18 or 29° C.)
Protocol: (§2) 40-45 young females and 20-25 young males raised at 25° C. upon food with the indicated tetracycline supplement were allowed to mate, then transferred to normal (tetracycline-free) food after 3-4 days. These flies were transferred to fresh vials of normal food every day for 12 days, then removed on the 13th day. All the vials were incubated at 25° C. while the progeny developed. The numbers of male and female progeny emerging as adults in each vial were recorded.
(§3) A standard range of additive concentrations were used in the following experiments (0.05-20 μg/ml). […] (=“not done”)
(§4) All the preceding experiments were performed at 25° C., the standard temperature for Drosophila culture. However, the insects in the wild would clearly be exposed to varying temperatures, so we investigated the extent to which the efficiency of the system is affected by temperature. As with the recombinant chromosome experiments, 40-45 young virgin females and 20-25 young males raised at 25° C. upon food with the indicated tetracycline supplement were allowed to mate, then transferred to normal (tetracycline-free) food after 3-4 days. These flies were transferred to fresh vials of normal food every day. The numbers of male and female progeny emerging as adults in each vial were recorded. These experiments were performed at either 18° C. or 29° C.

[5] = test system: Hsp26 tTa, tRe Msl-1^Mpu on the 2nd chromosome; test: as above
Protocol: as §2, §3, §4

[6] = test system: Sxl^pe-tTA, tRE-Msl-2^Nopu on the X chromosome; test: as above; details: for Female progeny per daily vial / Female progeny Total / Male progeny Total: 25° C.; for Female progeny per daily vial: Day 1-12 on tetracycline-free food; for Female progeny Total / Male progeny Total: Day 1-12 total
Protocol: as §2, §3, §4

[7] = test system: Sxl^pe-tTA, tRE-Ras64B^V12 on the X chromosome; test: as above; details: for Female progeny / Male progeny: 18° C., then tetracycline-free food; for Female progeny per daily vial / Female progeny Total / Male progeny Total: 25° C.; for Female progeny per daily vial: Day 1-12 on tetracycline-free food; for Female progeny Total / Male progeny Total: Day 1-12 total; for Female progeny emerging as adults / Male progeny emerging as adults: 29° C.
Protocol: as §2, §3, §4

[8] = parents raised on tetracycline 0.1 μg/ml, 18° C.
[9] = parents raised on tetracycline 0.1 μg/ml, 29° C.
[10] = parents raised on tetracycline 1 μg/ml, 18° C.
[11] = parents raised on tetracycline 1 μg/ml, 29° C.
[12] = parents raised on tetracycline 5 μg/ml, 18° C.
[13] = parents raised on tetracycline 5 μg/ml, 29° C.
[14] = parents raised on Tet. 0.1 μg/ml
[15] = parents raised on Tet. 20 μg/ml
[16] = parents raised on Tet. 100 μg/ml
[17] = parents raised on Tet. 500 μg/ml
[18] = parents raised on Tet. 1000 μg/ml
[19] = parents raised on Tet. 2000 μg/ml
[20] = parents raised on Tetracycline 0.1 μg/ml
[21] = parents raised on Tetracycline 1 μg/ml
[22] = parents raised on Tetracycline 5 μg/ml
[23] = parents raised on tetracycline 0.1 μg/ml
[24] = parents raised on tetracycline 1 μg/ml
[25] = parents raised on tetracycline 5 μg/ml

With `CN(C)[C@@H]1C(O)=C(C(N)=O)C(=O)[C@@]2(O)C(O)=C3C(=O)c4c(O)cccc4[C@@](C)(O)[C@H]3C[C@@H]12` [Tetracycline, tetracycline] the “LacZ negative Total” value ([1]; Tetracycline 0.1 μg/ml in food) was 708, the “LacZ positive Total” value ([1]; Tetracycline 0.1 μg/ml in food) was 0 and the “LacZ negative Total” value ([1]; Tetracycline 1 μg/ml in food) was 737. The “LacZ positive Total” value ([1]; Tetracycline 1 μg/ml in food) was 0, the “LacZ negative Total” value ([1]; Tetracycline 5 μg/ml in food) was 683 and the “LacZ positive Total” value ([1]; Tetracycline 5 μg/ml in food) was 0. The “Female progeny Total” value ([2]; Tetracycline 0.1 μg/ml in food) was 296, the “Male progeny Total” value ([2]; Tetracycline 0.1 μg/ml in food) was 520 and the “Female progeny Total” value ([2]; Tetracycline 1 μg/ml in food) was 326. For the same compound, the “Male progeny Total” value ([2]; Tetracycline 1 μg/ml in food) was 473, the “Female progeny Total” value ([2]; Tetracycline 5 μg/ml in food) was 304 and the “Male progeny Total” value ([2]; Tetracycline 5 μg/ml in food) was 535. For the same compound, the “Female progeny Total” value ([3]; Tetracycline 0.1 μg/ml in food) was 379, the “Male progeny Total” value ([3]; Tetracycline 0.1 μg/ml in food) was 434 and the “Female progeny Total” value ([3]; Tetracycline 1 μg/ml in food) was 386. The “Male progeny Total” value ([3]; Tetracycline 1 μg/ml in food) was 389, the “Female progeny Total” value ([3]; Tetracycline 5 μg/ml in food) was 383 and the “Male progeny Total” value ([3]; Tetracycline 5 μg/ml in food) was 375. The “Female progeny emerging as adults” value [4, 8] was 8, the “Male progeny emerging as adults” value [4, 8] was 840 and the “Female progeny emerging as adults” value [4, 9] was 0. For the same compound, the “Male progeny emerging as adults” value [4, 9] was 732, the “Female progeny emerging as adults” value [4, 10] was 5 and the “Male progeny emerging as adults” value [4, 10] was 927. The “Female progeny emerging as adults” value [4, 11] was 0, the “Male progeny emerging as adults” value [4, 11] was 771 and the “Female progeny emerging as adults” value [4, 12] was 8. The “Male progeny emerging as adults” value [4, 12] was 837, the “Female progeny emerging as adults” value [4, 13] was 0 and the “Male progeny emerging as adults” value [4, 13] was 816. For the same compound, the “Female progeny emerging as adults” value [5, 8] was 6, the “Male progeny emerging as adults” value [5, 8] was 628 and the “Female progeny emerging as adults” value [5, 9] was 0. For the same compound, the “Male progeny emerging as adults” value [5, 9] was 733, the “Female progeny emerging as adults” value [5, 10] was 3 and the “Male progeny emerging as adults” value [5, 10] was 614. For the same compound, the “Female progeny emerging as adults” value [5, 11] was 0, the “Male progeny emerging as adults” value [5, 11] was 776 and the “Female progeny emerging as adults” value [5, 12] was 5. The “Male progeny emerging as adults” value [5, 12] was 712, the “Female progeny emerging as adults” value [5, 13] was 0 and the “Male progeny emerging as adults” value [5, 13] was 728. For the same compound, the “Female progeny per daily vial” value [6, 14] was 0, the “Female progeny Total” value [6, 14] was 0 and the “Male progeny Total” value [6, 14] was 1464. The “Female progeny per daily vial” value ([6]; parents raised on Tet. 1 μg/ml) was 0, the “Female progeny Total” value ([6]; parents raised on Tet. 1 μg/ml) was 0 and the “Male progeny Total” value ([6]; parents raised on Tet. 1 μg/ml) was 1527. For the same compound, the “Female progeny per daily vial” value ([6]; parents raised on Tet. 5 μg/ml) was 0, the “Female progeny Total” value ([6]; parents raised on Tet. 5 μg/ml) was 0 and the “Male progeny Total” value ([6]; parents raised on Tet. 5 μg/ml) was 1535. The “Female progeny per daily vial” value [6, 15] was 0, the “Female progeny Total” value [6, 15] was 0 and the “Male progeny Total” value [6, 15] was 1243. For the same compound, the “Female progeny per daily vial” value [6, 16] was 0, the “Female progeny Total” value [6, 16] was 0 and the “Male progeny Total” value [6, 16] was 1483. The “Female progeny Total” value [6, 17] was 2, the “Male progeny Total” value [6, 17] was 1625 and the “Female progeny Total” value [6, 18] was 29. For the same compound, the “Male progeny Total” value [6, 18] was 1402, the “Female progeny Total” value [6, 19] was 44 and the “Male progeny Total” value [6, 19] was 1543. For the same compound, the “Female progeny emerging as adults” value [6, 8] was 6, the “Male progeny emerging as adults” value [6, 8] was 695 and the “Female progeny emerging as adults” value [6, 9] was 0. For the same compound, the “Male progeny emerging as adults” value [6, 9] was 682, the “Female progeny emerging as adults” value [6, 10] was 8 and the “Male progeny emerging as adults” value [6, 10] was 816. For the same compound, the “Female progeny emerging as adults” value [6, 11] was 0, the “Male progeny emerging as adults” value [6, 11] was 804 and the “Female progeny emerging as adults” value [6, 12] was 8. For the same compound, the “Male progeny emerging as adults” value [6, 12] was 785, the “Female progeny emerging as adults” value [6, 13] was 0 and the “Male progeny emerging as adults” value [6, 13] was 648. The Female progeny [7, 20] was 8, the Male progeny [7, 20] was 982 and the Female progeny [7, 21] was 10. The Male progeny [7, 21] was 912, the Female progeny [7, 22] was 7 and the Male progeny [7, 22] was 871. The “Female progeny per daily vial” value [7, 14] was 0, the “Female progeny Total” value [7, 14] was 0 and the “Male progeny Total” value [7, 14] was 1262. The “Female progeny per daily vial” value ([7]; parents raised on Tet. 1 μg/ml) was 0, the “Female progeny Total” value ([7]; parents raised on Tet. 1 μg/ml) was 0 and the “Male progeny Total” value ([7]; parents raised on Tet. 1 μg/ml) was 1399. For the same compound, the “Female progeny per daily vial” value ([7]; parents raised on Tet. 5 μg/ml) was 0, the “Female progeny Total” value ([7]; parents raised on Tet. 5 μg/ml) was 0 and the “Male progeny Total” value ([7]; parents raised on Tet. 5 μg/ml) was 1359. The “Female progeny per daily vial” value [7, 15] was 0, the “Female progeny Total” value [7, 15] was 0 and the “Male progeny Total” value [7, 15] was 1398. For the same compound, the “Female progeny per daily vial” value [7, 16] was 0, the “Female progeny Total” value [7, 16] was 0 and the “Male progeny Total” value [7, 16] was 1469. The “Female progeny Total” value [7, 17] was 25, the “Male progeny Total” value [7, 17] was 1478 and the “Female progeny Total” value [7, 18] was 49. The “Male progeny Total” value [7, 18] was 1349, the “Female progeny Total” value [7, 19] was 92 and the “Male progeny Total” value [7, 19] was 1439. The “Female progeny emerging as adults” value [7, 23] was 0, the “Male progeny emerging as adults” value [7, 23] was 716 and the “Female progeny emerging as adults” value [7, 24] was 0. The “Male progeny emerging as adults” value [7, 24] was 711, the “Female progeny emerging as adults” value [7, 25] was 0 and the “Male progeny emerging as adults” value [7, 25] was 715.

Reference: patent publication US9125388B2, “Biological control” (Isis Innovation Limited, priority 1999, dated 2015)
